Source: patent publication US4206156A, “Hydroxyaminohydrocarbonphosphonic acids” (Fujisawa Pharmaceutical Company, Limited, priority 1976, dated 1980)
Structures can show the parent of a compound that is named as a salt.

Experiments:
[1] = tested on: pathogenic microorganisms; settings: in words; from work filed as U.S. application Ser. No. 819,551; cited from earlier work
[2] = tested on: Bacillus substilis ATCC6633; experiment: M.I.C., serial agar dilution, nutrient agar (inoculum 10^6 cells/ml); type: cell-based; settings: ATCC6633, 20 h
Method: (§1) M.I.C. test was conducted by the usual serial agar dilution method, (inoculum:10^6 cells/ml.), using a nutrient agar which was incubated at 37° C. for 20 hours. M.I.C. value is expressed as the minimum concentration of the monoammonium salt of 3-(N-formyl-N-hydroxyamino)-propylphosphonic acid (mcg/ml.) which inhibits growth of microorganisms.

[3] = tested on: Citrobacter freundii 1381-3; experiment: as above; type: cell-based; settings: 13813, 37° C., 20 hours
Method: as §1

[4] = tested on: Enterobacter aerogenes 1402-10; experiment: as above; type: cell-based; settings: Klebsiella aerogenes, 140210, 37° C., 20 hours
Method: as §1

[5] = tested on: Enterobacter cloacae 1401-4; experiment: as above; type: cell-based; settings: 14014, 37° C., 20 hours
Method: as §1

[6] = tested on: Escherichia coli 1341-18(R); experiment: as above; type: cell-based; settings: 20 h
Method: as §1

[7] = tested on: Escherichia coli NIHJ JC-2; experiment: as above; type: cell-based; settings: NIHJJC2, 37° C., 20 hours
Method: as §1

[8] = tested on: Klebsiella pneumoniae NCTC 418; experiment: as above; type: cell-based; settings: NCTC418, 37° C., 20 hours
Method: as §1

[9] = tested on: Proteus inconstans 1436-21; experiment: as above; type: cell-based; settings: Providencia alcalifaciens, 143621, 37° C., 20 hours
Method: as §1

[10] = tested on: Proteus mirabilis 1432-75; experiment: as above; type: cell-based; settings: 143275, 37° C., 20 hours
Method: as §1

Proteus morganii 1433-2 [11] = experiment: as above; type: cell-based; settings: Morganella morganii, 14332, 37° C., 20 hours
Method: as §1

Proteus rettgeri 1434-3 [12] = experiment: as above; type: cell-based; settings: Providencia rettgeri, 14343, 37° C., 20 hours
Method: as §1

[13] = tested on: Proteus vulgaris IAM 1025; experiment: as above; type: cell-based; settings: IAM1025, 37° C., 20 hours
Method: as §1

[14] = tested on: Pseudomonas aeruginosa IAM 1095; experiment: as above; type: cell-based; settings: IAM1095, 37° C., 20 hours
Method: as §1

[15] = tested on: Salmonella enteritidis 1891; experiment: as above; type: cell-based; settings: Salmonella enterica, 37° C., 20 hours
Method: as §1

[16] = tested on: Salmonella paratyphi A-1015; experiment: as above; type: cell-based; settings: Salmonella enterica, 20 h
Method: as §1

Salmonella typhi 0-901 [17] = experiment: as above; type: cell-based; settings: Salmonella enterica, 20 h
Method: as §1

[18] = tested on: Salmonella typhimurium 1406; experiment: as above; type: cell-based; settings: Salmonella enterica, 37° C., 20 hours
Method: as §1

Sarcina lutea PCI 1001 [19] = experiment: as above; type: cell-based; settings: Micrococcus luteus, PCI1001, 37° C., 20 hours
Method: as §1

[20] = tested on: Serratia marcescens 1421-4; experiment: as above; type: cell-based; settings: 14214, 37° C., 20 hours
Method: as §1

Shigella flexneri IaEW8 [21] = experiment: as above; type: cell-based; settings: 37° C., 20 hours
Method: as §1

Shigella sonnei I EW33 [22] = experiment: as above; type: cell-based; settings: IEW33, 37° C., 20 hours
Method: as §1

[23] = tested on: Staphylococcus aureus FDA209P JC-1; experiment: as above; type: cell-based; settings: 37° C., 20 hours
Method: as §1

[24] = tested on: Pseudomonas aeruginosa 1101-76; experiment: Protecting effect in experimental mice infections; type: in vivo, mice (ICR-strain); settings: Pseudomonas aeruginosa 1101-76, 1.2 × 10^6 viable cells per mouse, survival 1 week
Method: Male mice of ICR-strain, aged 4 weeks and weighing 24±1 g., were used. Each experimental group consists of 8 animals.
A prescribed amount of pathogenic bacteria, suspended in 5% aqueous Mucin solution (0.5 ml.), was intraperitoneally injected into the test animals.
Subsequently, the above test compound in water (0.25 ml.) was administered to each of the test animals, subcutaneously three times at 0, 1, 3 hours or orally once at 1 hour after the infection of pathogenic bacteria, respectively.

[25] = tested on: Bacillus subtilis ATCC6633; experiment: M.I.C., serial agar dilution, nutrient agar (inoculum 10^5 cells/ml); type: cell-based; settings: 37° C., 18 hours
Method: (§2) M.I.C. test was conducted by an usual serial agar dilution method, (inoculum: 10^5 cells/ml.), using a nutrient agar which was incubated at 37° C. for 18 hours. M.I.C. value is expressed as the minimum concentration of the monopotassium salt of 3-(N-formyl-N-hydroxyamino)-trans-1-propenylphosphonic acid (mcg/ml.) which inhibits growth of microorganisms.

[26] = tested on: Citrobacter freundii 1381-3; experiment: as above; type: cell-based; settings: 13813, 37° C., 18 hours
Method: as §2

[27] = tested on: Enterobacter aerogenes 1402-10; experiment: as above; type: cell-based; settings: Klebsiella aerogenes, 140210, 37° C., 18 hours
Method: as §2

[28] = tested on: Enterobacter cloacae 1401-4; experiment: as above; type: cell-based; settings: 14014, 37° C., 18 hours
Method: as §2

[29] = tested on: Escherichia coli 1341-18(R^+); experiment: as above; type: cell-based; settings: 37° C., 18 hours
Method: as §2

[30] = tested on: Klebsiella pneumoniae NCTC 418; experiment: as above; type: cell-based; settings: NCTC418, 37° C., 18 hours
Method: as §2

[31] = tested on: Proteus inconstans 1436-21; experiment: as above; type: cell-based; settings: Providencia alcalifaciens, 143621, 37° C., 18 hours
Method: as §2

[32] = tested on: Proteus mirabilis 1432-75; experiment: as above; type: cell-based; settings: 143275, 37° C., 18 hours
Method: as §2

Proteus morganii 1433-2 [33] = experiment: as above; type: cell-based; settings: Morganella morganii, 14332, 37° C., 18 hours
Method: as §2

Proteus rettgeri 1434-3 [34] = experiment: as above; type: cell-based; settings: Providencia rettgeri, 14343, 37° C., 18 hours
Method: as §2

[35] = tested on: Proteus vulgaris IAM 1025; experiment: as above; type: cell-based; settings: IAM1025, 37° C., 18 hours
Method: as §2

[36] = tested on: Pseudomonas aeruginosa IAM 1095; experiment: as above; type: cell-based; settings: IAM1095, 37° C., 18 hours
Method: as §2

[37] = tested on: Salmonella enteritidis 1891; experiment: as above; type: cell-based; settings: Salmonella enterica, 37° C., 18 hours
Method: as §2

[38] = tested on: Salmonella paratyphi A-1015; experiment: as above; type: cell-based; settings: Salmonella enterica, 37° C., 18 hours
Method: as §2

Salmonella typhi 0-901 [39] = experiment: as above; type: cell-based; settings: Salmonella enterica, 37° C., 18 hours
Method: as §2

[40] = tested on: Salmonella typhimurium 1406; experiment: as above; type: cell-based; settings: Salmonella enterica, 37° C., 18 hours
Method: as §2

Sarcina lutea PCI 1001 [41] = experiment: as above; type: cell-based; settings: Micrococcus luteus, PCI1001, 37° C., 18 hours
Method: as §2

[42] = tested on: Serratia marcescens 1421-4; experiment: as above; type: cell-based; settings: 14214, 37° C., 18 hours
Method: as §2

Shigella flexneri IaEW8 [43] = experiment: as above; type: cell-based; settings: 37° C., 18 hours
Method: as §2

Shigella sonnei I EW33 [44] = experiment: as above; type: cell-based; settings: IEW33, 37° C., 18 hours
Method: as §2

[45] = tested on: Staphylococcus aureus FDA209PJC-1; experiment: as above; type: cell-based; settings: FDA209PJC1, 37° C., 18 hours
Method: as §2

Acute toxicity, mouse = experiment: Acute toxicity, mouse; parameters: species or system Mouse (ICR-strain); settings: in vivo, observed one week
From the text: Male and Female mice of ICR-strain, aged 6 weeks were used.
(§3) Litchfield-Wilcoxon method

Acute toxicity, rat = settings: in vivo, male, observed one week
From the text: as §3

In the case of `CC(=O)N(O)CCCP(=O)(O)O` [FR-900098, 3-(N-acetyl-N-hydroxyamino)propylphosphonic acid], the antimicrobial activities [1] is given as “antimicrobial activities against various pathogenic microorganisms”.

Work on `O=CN(O)CCCP(=O)(O)O` [monoammonium salt of 3-(N-formyl-N-hydroxyamino)propylphosphonic acid] yielded an MIC [2] of 6.25 µg/mL, an MIC [3] of 3.13 µg/mL and an MIC [4] of 6.25 µg/mL. For the same compound, the MIC [5] was 6.25 µg/mL, the MIC [6] was 12.5 µg/mL and the MIC [7] was 200 µg/mL. It also gave an MIC [8] of 100 µg/mL, an MIC [9] of 3.13 µg/mL and an MIC [10] of 6.25 µg/mL. The MIC (Proteus morganii 1433-2 [11]) was over 800 µg/mL, the MIC (Proteus rettgeri 1434-3 [12]) was 1.56 µg/mL and the MIC [13] was 3.13 µg/mL. The MIC [14] was 0.78 µg/mL, the MIC [15] was 0.39 µg/mL and the MIC [16] was 12.5 µg/mL. It also gave an MIC (Salmonella typhi 0-901 [17]) of 0.39 µg/mL, an MIC [18] of 25 µg/mL and an MIC (Sarcina lutea PCI 1001 [19]) of at most 0.1 µg/mL. The MIC [20] was 100 µg/mL, the MIC (Shigella flexneri IaEW8 [21]) was 12.5 µg/mL and the MIC (Shigella sonnei I EW33 [22]) was 100 µg/mL. The MIC [23] was over 800 µg/mL, the “ED50, oral administration” value ([24]; orally once at 1 hour) was 0.280 mg/mouse and the “ED50, subcutaneous administration” value ([24]; s.c. three times at 0, 1, 3 hours) was 0.228 mg/mouse.

For `O=CN(O)C/C=C/P(=O)(O)O` [monopotassium salt of 3-(N-formyl-N-hydroxyamino)-trans-1-propenylphosphonic acid], the MIC [25] was 6.25 µg/mL, the MIC [26] was 12.5 µg/mL and the MIC [27] was 50 µg/mL. It also gave an MIC [28] of 12.5 µg/mL, an MIC [29] of 25 µg/mL and an MIC [30] of 100 µg/mL. For the same compound, the MIC [31] was 25 µg/mL, the MIC [32] was 0.39 µg/mL and the MIC (Proteus morganii 1433-2 [33]) was over 100 µg/mL. For the same compound, the MIC (Proteus rettgeri 1434-3 [34]) was 6.25 µg/mL, the MIC [35] was 1.56 µg/mL and the MIC [36] was 1.56 µg/mL. For the same compound, the MIC [37] was 6.25 µg/mL, the MIC [38] was 25 µg/mL and the MIC (Salmonella typhi 0-901 [39]) was 0.78 µg/mL. It also gave an MIC [40] of 12.5 µg/mL, an MIC (Sarcina lutea PCI 1001 [41]) of 0.2 µg/mL and an MIC [42] of over 100 µg/mL. The MIC (Shigella flexneri IaEW8 [43]) was 50 µg/mL, the MIC (Shigella sonnei I EW33 [44]) was 25 µg/mL and the MIC [45] was over 100 µg/mL.

Compound `O=CN(O)CCCP(=O)(O)O` [monosodium salt of 3-(N-formyl-N-hydroxyamino)propylphosphonic acid] has an LD50 at 168 h (Acute toxicity, mouse; po, female, oral, read-out: LD50, oral administration) of over 11000 mg/kg, an LD50 at 168 h (Acute toxicity, mouse; po, male, oral, read-out: LD50, oral administration) of 11000 mg/kg and an LD50 at 168 h (Acute toxicity, mouse; sc, female, subcutaneous, read-out: LD50, subcutaneous administration) of 8270 mg/kg. It also gave an LD50 at 168 h (Acute toxicity, mouse; sc, male, subcutaneous, read-out: LD50, subcutaneous administration) of 8050 mg/kg, an LD50 at 168 h (Acute toxicity, rat; oral, read-out: LD50, oral administration) of over 11000 mg/kg and an LD50 at 168 h (Acute toxicity, rat; sc, subcutaneous, read-out: LD50, subcutaneous administration) of 8000 mg/kg.
